Legend:
Experiment in all cases: relative viability (nuclei count vs DMSO), 5 days (fraction); higher = more cells survive
[1] = compound: COc1cc2nccc(Oc3ccc(NC(=O)C4(C(=O)Nc5ccc(F)cc5)CC4)cc3)c2cc1OC [Cabozantinib] + CCNC(=O)c1noc(-c2cc(C(C)C)c(O)cc2O)c1-c1ccc(CN2CCOCC2)cc1 [Luminespib] (partner 0.01 µM)
In short: (§1)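 The day after seeding in 1536-well plates, lung cancer cell lines were treated by pin tool with a single drug, or with a fixed anchor-drug dose together with five library-drug doses (not always all listed) in √10 steps. After 5 days, a combined fix-and-stain solution (final 0.05% Triton X-100, 1% formaldehyde, 1 ug/ml Hoechst) was added. Nuclei counted on 4× images gave relative viability as treated counts over vehicle counts, reported as the median of duplicate plates.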

Cabozantinib + Olaparib = compound: COc1cc2nccc(Oc3ccc(NC(=O)C4(C(=O)Nc5ccc(F)cc5)CC4)cc3)c2cc1OC [Cabozantinib] + O=C(c1cc(Cc2n[nH]c(=O)c3ccccc23)ccc1F)N1CCN(C(=O)C2CC2)CC1 [Olaparib] (partner 8 µM)
In short: as §1

Zosuquidar + Lapatinib = compound: O[C@@H](COc1cccc2ncccc12)CN1CCN([C@@H]2c3ccccc3[C@@H]3[C@H](c4ccccc42)C3(F)F)CC1 [Zosuquidar] + CS(=O)(=O)CCNCc1ccc(-c2ccc3ncnc(Nc4ccc(OCc5cccc(F)c5)c(Cl)c4)c3c2)o1 [Lapatinib] (partner 2 µM)
In short: as §1

Zosuquidar + Decitabine = compound: O[C@@H](COc1cccc2ncccc12)CN1CCN([C@@H]2c3ccccc3[C@@H]3[C@H](c4ccccc42)C3(F)F)CC1 [Zosuquidar] + Nc1ncn([C@H]2C[C@H](O)[C@@H](CO)O2)c(=O)n1 [Decitabine] (partner 2 µM)
In short: as §1

Cell Line | relative viability ([1]; first compound 0.02 µM) | relative viability ([1]; first compound 0.06325 µM) | relative viability ([1]; first compound 0.2 µM) | relative viability ([1]; first compound 0.6325 µM) | relative viability ([1]; first compound 2 µM) | relative viability (Cabozantinib + Olaparib; first compound 0.02 µM) | relative viability (Cabozantinib + Olaparib; first compound 0.06325 µM) | relative viability (Cabozantinib + Olaparib; first compound 0.2 µM) | relative viability (Cabozantinib + Olaparib; first compound 0.6325 µM) | relative viability (Cabozantinib + Olaparib; first compound 2 µM) | relative viability (Zosuquidar + Lapatinib; first compound 0.01 µM) | relative viability (Zosuquidar + Lapatinib; first compound 0.03162 µM) | relative viability (Zosuquidar + Lapatinib; first compound 0.1 µM) | relative viability (Zosuquidar + Lapatinib; first compound 0.3162 µM) | relative viability (Zosuquidar + Lapatinib; first compound 1 µM) | relative viability (Zosuquidar + Decitabine; first compound 0.01 µM) | relative viability (Zosuquidar + Decitabine; first compound 0.03162 µM) | relative viability (Zosuquidar + Decitabine; first compound 0.1 µM) | relative viability (Zosuquidar + Decitabine; first compound 0.3162 µM) | relative viability (Zosuquidar + Decitabine; first compound 1 µM)
NCI-H2405 | 0.615 | 0.83 | 0.648 | 0.629 | 0.588 | 0.859 | 1.01 | 0.931 | 0.899 | 0.804 | 1.17 | 0.971 | 1.15 | 1.24 | 1.11 | 0.737 | 0.777 | 0.734 | 0.767 | 0.758
NCI-H3122 | 0.111 | 0.102 | 0.0937 | 0.0876 | 0.101 | 0.636 | 0.655 | 0.617 | 0.527 | 0.633 | 0.997 | 0.906 | 1 | 1.01 | 1.01 | 0.394 | 0.449 | 0.417 | 0.508 | 0.457
PC-3 [JPC-3] | 0.857 | 0.803 |  | 0.825 | 0.777 | 1.23 | 1.31 |  | 1.2 | 1.14 | 0.449 | 0.429 | 0.401 | 0.433 | 0.447 | 0.886 | 0.925 | 0.791 | 0.859 | 0.79
PC-14 | 0.198 | 0.139 |  | 0.237 | 0.179 | 0.254 | 0.33 |  | 0.269 | 0.307 | 0.316 | 0.284 | 0.259 | 0.416 | 0.288 | 0.224 | 0.176 | 0.212 | 0.195 | 0.205
RERF-LC-KJ | 1.32 | 1.31 | 1.19 | 1.19 | 1.23 | 1.06 | 1.05 | 0.96 | 0.824 | 0.921 | 0.786 | 0.902 | 0.841 | 0.943 | 0.811 | 0.717 | 0.727 | 0.691 | 0.776 | 0.691
SK-LU-1 | 0.225 | 0.209 | 0.207 | 0.192 | 0.21 | 0.605 | 0.559 | 0.488 | 0.437 | 0.38 | 0.905 | 0.918 | 1.02 | 0.79 | 1.01 | 0.652 | 0.66 | 0.684 | 0.679 | 0.638
SK-MES-1 | 0.835 | 1 | 0.9 | 0.875 | 0.729 | 0.767 | 0.845 | 0.689 | 0.684 | 0.694 | 0.448 | 0.401 | 0.445 | 0.495 | 0.517 | 0.343 | 0.36 | 0.347 | 0.422 | 0.402
SW 1573 | 0.22 | 0.223 | 0.221 | 0.151 | 0.122 | 0.455 | 0.516 | 0.447 | 0.488 | 0.384 | 1.09 | 0.985 | 1.08 | 1.4 | 1.01 | 0.372 | 0.508 | 0.568 | 0.598 | 0.591
